Results on 1 compound are retold here after publication PMC7505949, “Structure-Guided Designing and Evaluation of Peptides Targeting Bacterial Transcription” (Frontiers in Bioengineering and Biotechnology, 2020).

Peptide text beside a SMILES is read from it.

Series [1] can be described thus: Solubility in water and aqueous buffer. The class given is physicochemical. From the text:
(§1) As the interaction interface between RNAP β1β2 domain and the transcription factor (CarD^NTD and TRCF-RID) ([Westblade et al., 2010]; [Gulten and Sacchettini, 2013]) is relatively large, flat, solvent-exposed, and devoid of the binding pocket, it is challenging to design small molecule-based inhibitors. We therefore aimed to design the peptide-based RNAP β/transcription factor inhibitors by selecting the key residues involved in the interaction at the conserved PPI interface between RNAP β and transcription factor complex. The sequence and molecular weight of the designed peptides are mentioned in Table 1. PEP-FOLD3.1 ([Lamiable et al., 2016]), an online server, was used to predict the de novo structures of the designed peptides by running 100 simulations for each peptide. PEP-FOLD3.1 provides the information in the form of models which are generated by OPEP (Optimized Potential for Efficient structure Prediction) energy. The topmost model with the lowest OPEP score having minimum energy and maximum stability for each peptide was selected for further computational analysis. The designed peptides were 7–8 amino acids in length and were commercially synthesized. The peptides were analyzed for their stability and solubility. All the peptides were soluble in water as well as in aqueous buffer with a solubility of > 10 mM.

Series [2] is described as follows: Storage stability in water by LC-MS. Type of series: physicochemical. The conditions noted are these: stored for over a year at 4°C, LC-MS (C18), observed vs calculated molecular weight. The protocol:
The stability of all the designed peptides was analyzed using Liquid chromatography-mass spectrometry (LC-MS) using Agilent Technologies (model G6550A). […] Peptide 3 was injected in the C18 column equilibrated in a positive mode at a flow rate of 0.5 mL/min using water as a mobile phase.
as §1, with “The topmost model with the lowest OPEP score having minimum energy and maximum stability for each peptide was selected for further computational analysis. The designed peptides were 7–8 amino acids in length and were commercially synthesized.” left out, “All the peptides were soluble in water as well as in aqueous buffer with a solubility of > 10 mM.” left out

Regarding `CC[C@H](C)[C@H](NC(=O)[C@H](CCC(=O)O)NC(=O)CNC(=O)[C@@H](N)[C@@H](C)O)C(=O)N[C@@H](CCCCN)C(=O)N[C@@H](CO)C(=O)N[C@@H](CCC(N)=O)C(=O)N[C@H](C(=O)O)[C@@H](C)O` [Peptide 2] (H-TGEIKSQT-OH), the “Solubility (in words)” value in series [1] is listed as “soluble in aqueous buffer”. Further, in series [2], the Stability on storage entry is listed as “highly stable”.
